Experimental data reported in paper PMC9663578, “A fluorogenic probe for predicting treatment response in non-small cell lung cancer with EGFR-activating mutations” (Nature Communications, 2022).
Values joined by “and” are separate entries in the source; they are usually repeats but may differ in a detail not shown here. Identical values can stand only once.

Experiments:
[1] = tested on: HCC827 cells; test: MTT cytotoxicity assay; type: cell-based; conditions: Homo sapiens, EGFR 19del, 48 h, n=3
[2] = biological target: T1, EGFR L858R (Homo sapiens, UniProt P00533, L858R); test: Kinase inhibition assay (fluorescent mobility-shift assay); type: biochemical; set-up: Kinase activity: unit not given here; conditions: for Kinase activity: L858R, n=1-3
T1 construct: EGFR L858R (amino acids 668–1210, #PR7447A); purchased Thermo Fisher PR7447A

[3] = biological target: T2, EGFR wild-type (Homo sapiens, UniProt P00533); test: Fluorescence turn-on response / titration of HX103 with recombinant EGFR;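 for Fluorescence intensity at 570 nm: 100% is HX103 fluorescence with wild-type EGFR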; type: binding; conditions: for Fluorescence intensity at 570 nm / Fluorescence response of HX103 to EGFR wild-type: n=1-3; for Fluorescence intensity, Wild-type: Fig. 2c; for Fluorescence response of HX103 to EGFR wild-type: Supplementary Fig. 2f
T2 construct: Recombinant human EGFR (amino acids 668–1210, #PR7295B); purchased Thermo Fisher PR7295B
Procedure: (d) Fluorescence spectra change of HX103 (5 µ M) with increasing concentration of EGFR L858R
(e) Fluorescence spectra change of HX103 (5 µ M ) with
increasing concentration of EGFR 19del (0 to 6 µM) in PBS buffer. (f) Titration curve of HX103
(5 µM) with increasing concentration of EGFRs (0 to 6 µM). The apparent binding affinity (Kd)
The fluorescence titration curve was fitted on one -
site specific binding model. I and I0 represent the intensities of HX103 at 570 nm in the presence
and absence of protein. Data represent average val ues ± SD, n = 3 independent experiments per
dissolved in dimethyl sulfoxide (DMSO) to obtain stock solutions (10 mM). The prepared stock
solution was diluted in sodium phosphate buffer (PBS, 1 M, pH=7.4) to obtain the desired final
concentration solution, containing 0.1% (v/v) DMSO as a cosolvent.
and emission fluorescence spectra of the solution before/after addition o f different concentration
Data analysis：The obtained fluorescence intensity at 570 nm (Excitation wavelength was 440
nm) in each sample was normalized by using the fluorescence intensity of HX103 in the presence
of EGFR. Specifically, the fluorescence intensity of HX103 in the presence of EGFR wild-type
was set at 100% to normalized that of the remaining samples.

[4] = tested on: MCF-7 cells; test: FACS assay in cultured cells
Procedure: The FACS assay was performed according to the reported literatures[67],[68]. Briefly, the cultured cells were seeded on the petri dish and counted using Count star BioMed automated cell counter. Around 10^6 live-cells were collected and were pelleted (2000×g, 3 min), followed by washing with PBS (2x). Cells were then resuspended in PBS buffer containing 0.1% BSA (1 × 10^6 cells/mL). […] The cell suspension was resuspended in PBS and analyzed with a FACSVerse^TM flow cytometer (BD Biosciences, LSRFortessa). About 10,000 events per tube were analyzed and the mean fluorescence intensity was detected and analyzed.
(§1) For the FACS assay with EGFR antibody, around 10^6 live-cells were collected and washed with PBS (2x). The cells were fixed by 400 µL 4% paraformaldehyde for 15 min at room temperature, followed by permeabilization with 0.1% Triton X-100 for 10 min and blocking with 5% BSA for 30 min. […] The cells were then washed with 0.5% BSA/PBS (3x) and resuspended in 400 µL of 0.1% BSA/PBS. […] The resuspended cell suspension was then analyzed on a FACSVerseTM flow cytometer (BD Biosciences, LSRFortessa). Nonspecific fluorescence binding was omitted by Rabbit mAb IgG isotype control (#3900, CST, 1:100) and the corresponding mean fluorescence was subtracted from the signal measured with each primary antibody. About 10,000 events per tube were analyzed and the mean fluorescence intensity was detected and analyzed.
(§2) Subsequently, the treated cells were incubated for 30 min at 37 °C, followed by washing with PBS buffer three times. […] Finally, the co-stained cells were washed with 0.5% BSA/PBS for three times and resuspended in 400 µL of 0.1% BSA/PBS. The obtained cell suspension was ready for analysis. Nonspecific fluorescence binding was omitted by Rabbit mAb IgG isotype control (#3900, CST, 1:100) as described above.
(§3) Nonspecific fluorescence binding was omitted by Rabbit mAb IgG isotype control (#3900, CST, 1:100). […] After incubation for another 30 min at room temperature, the co-stained cells were washed with 0.5% BSA/PBS for three times and resuspended in 400 µL of 0.1% BSA/PBS. The obtained cell suspension was ready for analysis. Nonspecific fluorescence binding was omitted by Rabbit mAb IgG isotype control (#3900, CST, 1:100) as described above.
(§4) The cells were seeded on the petri dish and cultured at the normal condition with 10% FBS, and that was changed to serum-free condition for 24 h when the cells proliferated at ~80% confluence. […] Nonspecific fluorescence binding was omitted by Rabbit mAb IgG isotype control (#3900, CST, 1:100) as described above.

[5] = biological target: T2, EGFR wild-type; test: Kinase inhibition assay (fluorescent mobility-shift assay); type: biochemical; set-up: Kinase activity: unit not given here; conditions: for Kinase activity: EGFR WT, n=1-3
[6] = tested on: Hela cells; test: FACS assay in cultured cells; conditions: for HX103 dose-dependent signal (Supplementary Fig. 18): 20 µM = 100
Procedure: Briefly, the cultured cells were seeded on the petri dish and counted using Count star BioMed automated cell counter. Around 10^6 live-cells were collected and were pelleted (2000×g, 3 min), followed by washing with PBS (2x). Cells were then resuspended in PBS buffer containing 0.1% BSA (1 × 10^6 cells/mL). […] The cell suspension was resuspended in PBS and analyzed with a FACSVerse^TM flow cytometer (BD Biosciences, LSRFortessa). About 10,000 events per tube were analyzed and the mean fluorescence intensity was detected and analyzed.
as §1, §2, §3, §4

[7] = HX103 5 µM, 30 min, replicates n=1-3

T1 sequence (P00533 668-1210 L858R): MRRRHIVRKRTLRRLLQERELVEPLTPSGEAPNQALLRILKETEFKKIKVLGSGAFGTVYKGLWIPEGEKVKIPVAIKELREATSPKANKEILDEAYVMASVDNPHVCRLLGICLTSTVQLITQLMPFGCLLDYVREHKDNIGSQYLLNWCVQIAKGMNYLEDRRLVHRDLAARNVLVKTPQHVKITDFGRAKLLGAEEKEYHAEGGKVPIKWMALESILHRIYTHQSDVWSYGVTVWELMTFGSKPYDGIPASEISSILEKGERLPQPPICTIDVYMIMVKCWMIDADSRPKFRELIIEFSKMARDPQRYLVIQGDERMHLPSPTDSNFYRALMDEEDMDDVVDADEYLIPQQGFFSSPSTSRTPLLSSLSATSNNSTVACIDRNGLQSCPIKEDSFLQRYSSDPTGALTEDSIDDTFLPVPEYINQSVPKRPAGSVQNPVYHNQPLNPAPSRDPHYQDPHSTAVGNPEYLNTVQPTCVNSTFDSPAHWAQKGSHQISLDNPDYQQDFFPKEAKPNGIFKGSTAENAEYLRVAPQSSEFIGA
T2 sequence (P00533 668-1210): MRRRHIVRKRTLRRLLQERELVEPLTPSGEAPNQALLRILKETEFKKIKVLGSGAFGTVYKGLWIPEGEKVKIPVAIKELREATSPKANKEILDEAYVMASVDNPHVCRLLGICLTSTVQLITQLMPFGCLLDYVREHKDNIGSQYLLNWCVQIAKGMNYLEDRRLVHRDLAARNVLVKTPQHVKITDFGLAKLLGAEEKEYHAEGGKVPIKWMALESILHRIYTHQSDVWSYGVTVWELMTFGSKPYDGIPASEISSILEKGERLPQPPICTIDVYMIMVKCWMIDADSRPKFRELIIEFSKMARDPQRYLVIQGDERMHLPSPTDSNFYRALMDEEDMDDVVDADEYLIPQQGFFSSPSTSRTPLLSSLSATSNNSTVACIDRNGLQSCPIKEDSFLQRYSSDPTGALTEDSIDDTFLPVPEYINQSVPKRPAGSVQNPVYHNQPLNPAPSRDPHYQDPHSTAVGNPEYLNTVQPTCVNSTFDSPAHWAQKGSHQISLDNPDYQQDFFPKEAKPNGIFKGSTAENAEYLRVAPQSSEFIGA

For `COc1cc2c(Nc3ccc(F)c(Cl)c3)ncnc2cc1OCCCNc1ccc(S(=O)(=O)N(C)C)c2nonc12` [HX103], the IC50 [1] was 9300 nM, the Kinase activity ([2]; Log [HX103 (M)] -5.5) was 1.026 and 1.162 and 1.004 and the Kinase activity ([2]; Log [HX103 (M)] -6) was 0.499 and 0.9509 and 0.7157. The Kinase activity ([2]; Log [HX103 (M)] -7) was 0.6308 and 0.9321 and 0.7802, the Kinase activity ([2]; Log [HX103 (M)] -7.5) was 4.698 and 2.842 and 4.52 and the Kinase activity ([2]; Log [HX103 (M)] -8) was 12.69 and 17.65 and 16.97. For the same compound, the Kinase activity ([2]; Log [HX103 (M)] -8.5) was 28.21 and 40.93 and 37.97, the Kinase activity ([2]; Log [HX103 (M)] -9) was 37.52 and 69.85 and 65.69 and the IC50 ([2]; n = 3) was 1.5 nM. The “Fluorescence intensity at 570 nm” value ([3]; Fig. 2b, EGFR+Afa.+HX103) was 40.8352 and 40.5015 and 39.6477, the “Fluorescence intensity at 570 nm” value ([3]; Fig. 2b, EGFR+Compound 4+HX103) was 34.8404 and 34.012 and 33.2139 and the “Fluorescence intensity at 570 nm” value ([3]; Fig. 2b, EGFR+Gef.+HX103) was 52.1782 and 56.1359 and 43.6715. The “Fluorescence intensity at 570 nm” value ([3]; Fig. 2b, EGFR+HX103) was 102.993 and 106.909 and 90.0974, the “Fluorescence intensity, Wild-type” value ([3]; wavelength 666 nm) was 3857.08 and the “Fluorescence intensity, Wild-type” value ([3]; wavelength 669 nm) was 3668.59. The “Fluorescence intensity, Wild-type” value ([3]; wavelength 671 nm) was 3481.17, the “Fluorescence intensity, Wild-type” value ([3]; wavelength 673 nm) was 3297.98 and the “Fluorescence intensity, Wild-type” value ([3]; wavelength 676 nm) was 3120.62. For the same compound, the “Fluorescence intensity, Wild-type” value ([3]; wavelength 678 nm) was 2950.6, the “Fluorescence intensity, Wild-type” value ([3]; wavelength 681 nm) was 2789.44 and the “Fluorescence intensity, Wild-type” value ([3]; wavelength 683 nm) was 2638.8. For the same compound, the “Fluorescence intensity, Wild-type” value ([3]; wavelength 686 nm) was 2500.58, the “Fluorescence intensity, Wild-type” value ([3]; wavelength 688 nm) was 2376.72 and the “Fluorescence intensity, Wild-type” value ([3]; wavelength 690 nm) was 2269.12. For the same compound, the “Fluorescence intensity, Wild-type” value ([3]; wavelength 693 nm) was 2178.16, the “Fluorescence intensity, Wild-type” value ([3]; wavelength 695 nm) was 2100.14 and the “Fluorescence intensity, Wild-type” value ([3]; wavelength 698 nm) was 2030.74. The “Fluorescence intensity, Wild-type” value ([3]; wavelength 700 nm) was 1965.66, the “Fluorescence intensity at 570 nm” value ([3]; Fig. 2d, HX103 with EGFR WT) was 95.7649 and 96.5955 and 107.639 and the fluorescence turn-on response ([3]; HX103 5 µM in PBS buffer (0.1% DMSO), 570 nm) was “high fluorescence”. The Kd ([3]; HX103 5 µM, EGFR 0 to 6 µM in PBS, one-site specific binding model, read-out: apparent binding affinity (Kd)) was 2700 ± 400 nM, the “Fluorescence response of HX103 to EGFR wild-type” value (from here on “Fluorescence response of HX103”) ([3]; EGFR 0.1 µM) was 1.163 and 1.321 and 1.006 and the “Fluorescence response of HX103” value ([3]; EGFR 0.5 µM) was 2.913 and 3.724 and 2.102. The “Fluorescence response of HX103” value ([3]; EGFR 5 µM) was 10.0441 and 11.0703 and 9.62, the “Fluorescence response of HX103” value ([3]; EGFR 6 µM) was 11.047 and 11.7068 and 10.3878 and the “normalized MFI of HX103 labeling” value [4, 7] was 25.1073% and 53.6481% and 30.8069%. For the same compound, the “EGFR(+) HX103 (+) (%)” value ([4]; HX103 5 µM, replicates n=1-3) was 0.04% and 0.02% and 0.09%, the “EGFR(+) HX103 (+) (%) AVE” value ([4]; MCF-7, AVE of n=3) was 0.05% and the “HX103 (+) (%) AVE” value ([4]; MCF-7, AVE of n=3) was 0.5297%. For the same compound, the “EGFR(+) HX103 (+) (%)” value ([4]; MCF-7, replicates n=1-3) was 0.09% and 0.04% and 0.02%, the “HX103(+) (%)” value ([4]; MCF-7, replicates n=1-3) was -0.051% and 1.21% and 0.43% and the Kinase activity ([5]; Log [HX103 (M)] -7) was 3.448 and 5.933 and 4.591. For the same compound, the Kinase activity ([5]; Log [HX103 (M)] -7.5) was 17.07 and 12.53 and 15.46, the Kinase activity ([5]; Log [HX103 (M)] -8) was 28.39 and 28.36 and 28.22 and the Kinase activity ([5]; Log [HX103 (M)] -8.5) was 52.62 and 55.81 and 54.21. The Kinase activity ([5]; Log [HX103 (M)] -9) was 85.4 and 76.53 and 77.56, the IC50 ([5]; n = 3) was 4 nM and the “normalized MFI of HX103 labeling” value [6, 7] was 54.5064% and 65.6652% and 60.0858%. The “EGFR(+) HX103 (+) (%)” value ([6]; HX103 5 µM, replicates n=1-3) was 13.055% and 13.1% and 19.51%, the “EGFR(+) HX103 (+) (%) AVE” value ([6]; Hela, AVE of n=3) was 15.2217% and the “HX103 (+) (%) AVE” value ([6]; Hela, AVE of n=3) was 15.7267%. The “HX103 dose-dependent signal (Supplementary Fig. 18)” value (“HX103 dose-dependent signal” below) ([6]; Hela, HX103 0.37 µM) was 10.7485 and 20.011 and 16.0693, the “HX103 dose-dependent signal” value ([6]; Hela, HX103 1.1 µM) was 23.8614 and 34.4348 and 25.4882 and the “HX103 dose-dependent signal” value ([6]; Hela, HX103 3.3 µM) was 36.4324 and 54.3602 and 56.4764. For the same compound, the “HX103 dose-dependent signal” value ([6]; Hela, HX103 10 µM) was 67.5297 and 65.6787 and 69.9637, the “HX103 dose-dependent signal” value ([6]; Hela, HX103 15 µM) was 106.382 and 89.2391 and 92.3446 and the “HX103 dose-dependent signal” value ([6]; Hela, HX103 20 µM) was 100. The “HX103 signal (Supplementary Fig. 7)” value ([6]; Hela, HX103 alone or with Gefitinib, replicates n=1-3) was 110.043 and 93.8574 and 96.1, the “EGFR(+) HX103 (+) (%)” value ([6]; Hela, replicates n=1-3) was 19.51% and 13.055% and 13.1% and the “HX103(+) (%)” value ([6]; Hela, replicates n=1-3) was 15.88% and 13.1% and 18.2%.
